Assay results: patent US6358948B1 (American Home Products Corporation, priority 1999, dated 2002)
Where “and” joins values, the source holds several entries; their conditions need not be identical. Equal values may be shown once. Read-outs that look alike come from different tables or passages of the source.

Tests used:
[1] = test system: rat uterine decidualization; assay: Rat decidualization assay; format: in vivo; details: for EC50: s.c., half-maximal increase in decidual response (uterine wet weight), ovariectomized rats, individual studies
human PR = biological target: T1, human PR (Homo sapiens, UniProt P06401); assay: PRE-luciferase assay in CV-1 cells; format: cell-based; details: read-out: hPR CV-1 IC50
T1 construct: expressed in transfected cells; host or cells: CV-1 cells (electroporated with pLEM-hPR-B and pGL3-2xPRE-luciferase)
T1 sequence (P06401 1-933): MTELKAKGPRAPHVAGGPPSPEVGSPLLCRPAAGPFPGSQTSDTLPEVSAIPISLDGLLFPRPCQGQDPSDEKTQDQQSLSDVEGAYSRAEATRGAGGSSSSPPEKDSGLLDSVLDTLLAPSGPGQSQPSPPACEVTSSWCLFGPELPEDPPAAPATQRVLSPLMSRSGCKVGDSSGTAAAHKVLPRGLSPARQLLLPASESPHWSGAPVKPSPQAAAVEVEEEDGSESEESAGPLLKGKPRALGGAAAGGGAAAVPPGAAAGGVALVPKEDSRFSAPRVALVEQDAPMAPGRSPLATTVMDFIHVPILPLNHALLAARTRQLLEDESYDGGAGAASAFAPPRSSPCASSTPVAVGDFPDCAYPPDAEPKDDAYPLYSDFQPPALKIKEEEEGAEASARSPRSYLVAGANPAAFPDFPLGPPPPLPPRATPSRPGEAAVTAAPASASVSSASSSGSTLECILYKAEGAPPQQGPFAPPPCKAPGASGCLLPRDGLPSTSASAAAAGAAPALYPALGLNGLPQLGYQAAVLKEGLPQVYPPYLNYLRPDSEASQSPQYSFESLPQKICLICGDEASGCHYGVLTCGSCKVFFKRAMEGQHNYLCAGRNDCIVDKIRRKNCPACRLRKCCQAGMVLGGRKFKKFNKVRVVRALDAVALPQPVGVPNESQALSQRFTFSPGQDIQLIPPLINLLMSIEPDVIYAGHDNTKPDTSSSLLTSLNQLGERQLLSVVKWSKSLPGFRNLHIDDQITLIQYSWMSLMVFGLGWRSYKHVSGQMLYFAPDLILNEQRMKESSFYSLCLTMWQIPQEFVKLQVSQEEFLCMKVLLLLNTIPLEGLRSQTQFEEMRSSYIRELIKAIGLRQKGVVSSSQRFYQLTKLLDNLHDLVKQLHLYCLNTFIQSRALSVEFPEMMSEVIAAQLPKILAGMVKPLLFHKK

SMILES	melting point	also measured
C#C[C@]1(O)CC[C@H]2[C@@H]3CCC4=CC(=O)CC[C@@H]4[C@H]3C(=C)C[C@@]21CC [3-Ketodesogestrel]		EC50 [1]: 0.10 mg/kg and 0.06 mg/kg and 0.11 mg/kg
CC1(C)OC(C)(C(F)(F)F)Nc2ccc(-c3cccc(Cl)c3)cc21 (stereo not drawn) [Compound 2, 6-(3-Chloro-phenyl)-2,4,4-trimethyl-2-trifluoromethyl-1,4-dihydro-2H-benzo[d][1,3]oxazine]		IC50 (human PR): 50 nM
CC1OC(C)(C)Nc2ccc(-c3cccc([N+](=O)[O-])c3)cc21 (stereo not drawn) [Compound 3, 6-(3-Nitro-phenyl)-2,2,4,-trimethyl-1,4-dihydro-2H-benzo[d][1,3]oxazine]		IC50 (human PR; CV-1 cells co-transfected with human PR and PRE-luciferase, decrease in 3 nM progesterone induced PRE-luciferase activity): 1680 nM
CC1(C2CC2)NC(=O)Nc2ccc(-c3cccc(Cl)c3)cc21 (stereo not drawn) [Example 9, 6-(3-Chlorophenyl)-4-cyclopropyl-4-methyl-3,4-dihydro-1H-quinazolin-2-one]	125 to 127 °C	
CN1C(=O)Nc2ccc(-c3cccc(Cl)c3)cc2C1(C)C1CC1 (stereo not drawn) [Example 10, 6-(3-Chlorophenyl)-4-cyclopropyl-3,4-dimethyl-3,4-dihydro-1H-quinazolin-2-one]	193 to 194 °C	
CC1(C)CC(=O)Nc2ccc(-c3cccc(Cl)c3)cc21 [Example 11, 6-(3-Chloro-phenyl)-4,4-dimethyl-3,4-dihydro-1H-quinolin-2-one]	211 to 215 °C	
CC1Nc2ccc(-c3cc(F)cc(C#N)c3)cc2C(C)(C)O1 (stereo not drawn) [Example 14, 3-Fluoro-5-(2,4,4-trimethyl-1,4-dihydro-2H-3,1-benzoxazin-6-yl)benzonitrile]	163 to 164 °C	
CC1Nc2ccc(-c3csc(C#N)c3)cc2C(C)(C)O1 (stereo not drawn) [Example 15, 4-(2,4,4-Trimethyl-1,4-dihydro-2H-3,1-benzoxazin-6-yl)thiophene-2carbonitrile]	175 to 176 °C	
Cc1cc(C#N)sc1-c1ccc2c(c1)C(C)(C)OC(C)N2 (stereo not drawn) [Example 16, 4Methyl-5-(2,4,4-trimethyl-1,4-dihydro-2H-3,1-benzoxazin-6-yl)thiophene-2-carbonitrile]	145 to 146 °C	
C[C@@H]1Nc2ccc(-c3cc(F)cc(C#N)c3)cc2[C@](C)(c2ccccc2)O1 [Example 17, 3-[(2R,4S)-2,4-Dimethyl-4-phenyl-1,4-dihydro-2H-3,1-benzoxazin-6yl]-5-fluorobenzonitrile]	128 to 129 °C	
CC1OC(C)(C)c2cc(-c3ccc(C#N)n3C(=O)OC(C)(C)C)ccc2N1C(=O)OCC1c2ccccc2-c2ccccc21 (stereo not drawn) [Example 19, 9H-Fluoren-9-ylmethyl-6-[1-(tert-butoxycarbonyl)-5-cyano-1H-pyrrol-2-yl]-2,4,4-trimethyl-2H-3,1-benzoxazine-1(4H)-carboxylate]	135 to 136 °C	
CC1Nc2ccc(-c3ccc(C#N)[nH]3)cc2C(C)(C)O1 (stereo not drawn) [Example 20, 5-(2,4,4-Trimethyl-1,4-dihydro-2H-3,1-benzoxazin-6-yl)-1H-pyrrole-2-carbonitrile]	201 to 202 °C	
CC1OC(C)(C)c2cc(-c3ccc(C#N)n3C)ccc2N1C(=O)OCC1c2ccccc2-c2ccccc21 (stereo not drawn) [Example 21, 9H-Fluoren-9-ylmethyl 6-(5-cyano-1-methyl-1H-pyrrol-2-yl)-2,4,4-trimethyl-2H-3,1-benzoxazine-1(4H)-carboxylate]	63 to 64 °C	
CC1Nc2ccc(-c3ccc(C#N)n3C)cc2C(C)(C)O1 (stereo not drawn) [Example 22, 1-Methyl-5-(2,4,4-trimethyl-1,4-dihydro-2H-3,1-benzoxazin-6-yl)-1H-pyrrole-2-carbonitrile]	195 to 196 °C	
CC1Nc2ccc(-c3csc(C#N)c3)cc2C2(CCCCC2)O1 (stereo not drawn) [Example 26, 4-(2-Methylspiro[2H-3,1-benzoxazine-4,1′-cyclohexane]-6-yl)2-thiophenecarbonitrile]	111 to 112 °C	
CC1Nc2ccc(-c3cccc(F)c3)cc2C(C)(C)O1 (stereo not drawn) [Example 27, 6-(3-Fluorophenyl)-2,4,4-trimethyl-1,4-dihydro-2H-3,1-benzoxazine]	139 to 140 °C	
CC1Nc2ccc(-c3cccc(Cl)c3)cc2C(C)(C)O1 (stereo not drawn) [Example 28, 6-(3-Chlorophenyl)-2,4,4-trimethyl-1,4-dihydro-2H-3,1-benzoxazine]	144 to 146 °C	
CC1Nc2ccc(-c3ccc(F)c(Cl)c3)cc2C(C)(C)O1 (stereo not drawn) [Example 29, 6-(3-Chloro-4-fluorophenyl)-2,4,4-trimethyl-1,4-dihydro-2H-3,1-benzoxazine]	173 to 175 °C	
CC1Nc2ccc(-c3ccc(F)c(C#N)c3)cc2C(C)(C)O1 (stereo not drawn) [Example 30, 2-Fluoro-5-(2,4,4-trimethyl-1,4-dihydro-2H-3,1-benzoxazin-6-yl)benzonitrile]	184 to 186 °C	
CC1Nc2ccc(-c3coc(C#N)c3)cc2C(C)(C)O1 (stereo not drawn) [Example 31, 4-(2,4,4-Trimethyl-1,4-dihydro-2H-3,1-benzoxazin-6-yl)2-furonitrile]	116 to 118 °C	
CC1(C)OC(C(F)(F)F)Nc2ccc(-c3cc(F)cc(C#N)c3)cc21 (stereo not drawn) [Example 32, 3-[4,4-Dimethyl-2-(trifluoromethyl)-1,4-dihydro-2H-3,1-benzoxazin-6-yl]-5-fluorobenzonitrile]	102 to 103 °C	
Cc1cc(C#N)sc1-c1ccc2c(c1)C(C)(C)OC(C(F)(F)F)N2 (stereo not drawn) [Example 38, 5-[4,4-Dimethyl-2-(trifluoromethyl)-1,4-dihydro-2H-3,1-benzoxazin-6-yl]-4-methylthiophene-2-carbonitrile]	97 to 98 °C	
CC1(C)OC(C(F)(F)F)Nc2ccc(-c3cccc(Cl)c3)cc21 (stereo not drawn) [Example 39, 6-(3-Chlorophenyl)-4,4-dimethyl-2-(trifluoromethyl)-1,4-dihydro-2H-3,1-benzoxazine]	108 to 109 °C	
CC1(C)CC(=O)Nc2ccc(-c3cccc(F)c3)cc21 [Example 40, 6-(3-Fluorophenyl)-4,4-dimethyl-3,4-dihydroquinolin-2(1H)one]	190 to 192 °C	
CC1(C)CC(=O)Nc2ccc(-c3cc(F)cc(C#N)c3)cc21 [Example 41, 3-(4,4-Dimethyl-2-oxo-1,2,3,4-tetrahydroquinolin-6-yl)-5-fluorobenzonitrile]	249 to 250 °C	
CC1(C)CC(=S)Nc2ccc(-c3cccc(Cl)c3)cc21 [Example 43, 6-(3-Chlorophenyl)-4,4-dimethyl-3,4dihydroquinoline-2(1H)-thione]	197 to 198 °C	
CC1(C)CC(=S)Nc2ccc(-c3cccc(F)c3)cc21 [Example 44, 6-(3-Fluorophenyl)-4,4-dimethyl-3,4-dihydroquinoline-2(1H)-thione]	209 to 211 °C	
CC1(C)CC(=S)Nc2ccc(-c3cc(F)cc(C#N)c3)cc21 [Example 46, 3-(4,4-Dimethyl-2-thioxo-1,2,3,4-tetrahydroquinolin-6-yl)-5-fluorobenzonitrile]	240 to 242 °C (dec.)	
C#C[C@]1(O)CC[C@H]2[C@@H]3CCC4=CC(=O)CC[C@@H]4[C@H]3CC[C@@]21CC [Levonorgestrel]		EC50 [1]: 0.08 mg/kg and 0.12 mg/kg and 0.09 mg/kg (2×)
CC#C[C@]1(O)CC[C@H]2[C@@H]3CCC4=CC(=O)CCC4=C3[C@@H](c3ccc(N(C)C)cc3)C[C@@]21C [RU 486]		IC50 ([1]; p.o., half-maximal decrease in EC50 progesterone induced decidual response, rats): 0.21 mg/kg and 0.14 mg/kg
